Among the test systems are MDA-MB-231; OVCAR-8; NCI-H23; A498; UACC-62; SK-MEL-28; NCI-H460; Malme-3M; SNB-19; COLO 205; SF-539; NCI/ADR-RES; SNB-75; MDA-MB-435; HOP-92; UACC-257; RXF 393; MOLT-4; SW-620; HCC 2998.
Holding throughout (test): DTP human tumour cell line panel, 48 h

We go through eleven compounds from ChEMBL document CHEMBL1201862, “PubChem BioAssay data set” (2004).

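Growth conditions: 96-well plates. Treatment: test compound, 48 hours, 5 concentrations. Analysis: linear interpolation between bracketing concentrations; unreached endpoints set to highest concentration. Abbreviation: GI50, concentration required for 50% inhibition of growth.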 Activity calls are given as the source filed them. No stated cut-off is given here; in the data, active = GI50 up to about 1.1 µM and inactive = higher.

Broadly, the GI50 is the concentration at which growth is held to half of that of the control.

As to `N=C(CSSCC(=N)NCC12CC3CC(CC(C3)C1)C2)NCC12CC3CC(CC(C3)C1)C2`, the GI50 with MDA-MB-231 was 2.12 µM (inactive); with OVCAR-8, 18 µM (inactive); in the test on NCI-H23, 16 µM (inactive); in the test on A498, 25.5 µM (inactive); in the test on UACC-62, 13.3 µM (inactive); with SK-MEL-28 it was 20.7 µM (inactive). The GI50 in the test on NCI-H460 was 29.2 µM (inactive); in the test with Malme-3M, 16.8 µM (inactive); in the test on SNB-19, 19.2 µM (inactive); with COLO 205, 19.2 µM (inactive); with SF-539 it was 17.7 µM (inactive); in the test on NCI/ADR-RES, 17.1 µM (inactive). Moreover, the GI50 in the test with SNB-75 was 20.8 µM (inactive); with MDA-MB-435, 13.8 µM (inactive); in the test on HOP-92, 16.3 µM (inactive); in the test with UACC-257 it was 14.6 µM (inactive); with RXF 393 it was > 100 µM (inactive); with MOLT-4 it was 3.1 µM (inactive). In addition, the GI50 with SW-620 was 17.5 µM (inactive).

Consider `COC(=O)[C@H]1CO[C@@H](C(C)(C)C)N1C(=O)N1C=CC(=O)C[C@@H]1C`, for which the GI50 in the test with MDA-MB-231, with OVCAR-8, in the test with NCI-H23, with A498, in the test with UACC-62 and in the test on SK-MEL-28 was > 100 µM (inactive) each time. For the same compound, the GI50 in the test with Malme-3M, in the test on COLO 205, with NCI/ADR-RES, with SNB-75, with MDA-MB-435 and in the test on HOP-92 was > 100 µM (inactive) in each case. Besides, the GI50 in the test with UACC-257, in the test with RXF 393 and in the test on SW-620 was > 100 µM (inactive) in each case.

Regarding `Cc1ccc2c(c1C)-c1c(ccc(C)c1C)C(=O)C2=O`, the GI50 is 1.62 µM (inactive) in the test on MDA-MB-231; 0.253 µM (active) in the test on OVCAR-8; 0.53 µM (active) in the test on NCI-H23; 1.87 µM (inactive) in the test on A498; 0.356 µM (active) in the test with UACC-62; 0.92 µM (active) in the test on SK-MEL-28. Moreover, the 50% growth inhibitory concentration (GI50) was 0.966 µM (active) in the test on NCI-H460; 0.598 µM (active) in the test on Malme-3M; 0.881 µM (active) in the test on SNB-19; 2.02 µM (inactive) with COLO 205; 3.7 µM (inactive) with HCC 2998; 0.21 µM (active) in the test with SF-539. The GI50 is 0.151 µM (active) in the test on NCI/ADR-RES; 0.21 µM (active) in the test on MDA-MB-435; 0.374 µM (active) in the test on HOP-92; 1.37 µM (inactive) in the test on UACC-257; 0.337 µM (active) in the test with RXF 393; 0.2 µM (active) in the test with MOLT-4. The 50% growth inhibitory concentration (GI50) in the test with SW-620 was 0.378 µM (active).

`Cc1nnc(N)nc1/C=C\c1ccc(Cl)cc1Cl`: the GI50 is 87.5 µM (inactive) with MDA-MB-231; 27 µM (inactive) in the test with OVCAR-8; 33.7 µM (inactive) with NCI-H23; > 100 µM (inactive) in the test on A498; 30.8 µM (inactive) in the test on UACC-62; 55.5 µM (inactive) with SK-MEL-28. In addition, the GI50 with NCI-H460 was 19.9 µM (inactive); with Malme-3M, 23.8 µM (inactive); with SNB-19, 30.2 µM (inactive); in the test with COLO 205, 20.9 µM (inactive); with HCC 2998, 21.6 µM (inactive); in the test with NCI/ADR-RES, > 100 µM (inactive). In addition, the GI50 with MDA-MB-435 is 33.5 µM (inactive); in the test with HOP-92, 39.2 µM (inactive); with UACC-257, 54.6 µM (inactive); in the test with RXF 393 it was 39.7 µM (inactive); with MOLT-4, 41.4 µM (inactive); in the test on SW-620 it was 22 µM (inactive).

For `COc1cc(C2SC(C)C(=O)N2c2ccc(-c3csc(NS(=O)(=O)c4ccc(Cl)c(OC)c4)n3)cc2)ccc1O` (stereo not given), the GI50 is > 100 µM (inactive) in the test on MDA-MB-231; 29.7 µM (inactive) in the test with OVCAR-8; 22.6 µM (inactive) in the test with NCI-H23; > 100 µM (inactive) in the test on A498; 25.4 µM (inactive) in the test with UACC-62; > 100 µM (inactive) in the test with SK-MEL-28. The GI50 was > 100 µM (inactive) in the test on NCI-H460; 27.8 µM (inactive) in the test with Malme-3M; > 100 µM (inactive) in the test with SNB-19; > 100 µM (inactive) with COLO 205; 32.7 µM (inactive) in the test on SF-539; > 100 µM (inactive) with NCI/ADR-RES. Also, the GI50 in the test with SNB-75 was 19.7 µM (inactive); with MDA-MB-435, > 100 µM (inactive); in the test with HOP-92, 24.4 µM (inactive); in the test on UACC-257 it was 85.7 µM (inactive); with RXF 393 it was > 100 µM (inactive); in the test on MOLT-4, 25.1 µM (inactive). Besides, in the test on SW-620, the GI50 was 31.8 µM (inactive).

In the case of `CC1(C)CCC[C@](C)([C@H]2CC[C@]3(C)[C@@H]2[C@H](O)C[C@@H]2[C@@]4(C)CC[C@H](O)C(C)(C)[C@@H]4[C@H](O)C[C@]23C)O1`, the GI50 in the test on MDA-MB-231 was 17.3 µM (inactive); with OVCAR-8 it was 16.9 µM (inactive); in the test on NCI-H23, 11.3 µM (inactive); with A498 it was 12.8 µM (inactive); with UACC-62 it was 13.3 µM (inactive); in the test on SK-MEL-28, 11.9 µM (inactive). For the same compound, the GI50 in the test with NCI-H460 was 10.1 µM (inactive); in the test on Malme-3M, 19.1 µM (inactive); in the test on SNB-19, 11.5 µM (inactive); in the test on COLO 205 it was 10 µM (inactive); in the test on HCC 2998, 13.9 µM (inactive); in the test on SF-539, 11.7 µM (inactive). The GI50 in the test on NCI/ADR-RES is 15.2 µM (inactive); with SNB-75, 10.7 µM (inactive); in the test with MDA-MB-435, 12.2 µM (inactive); in the test on HOP-92, 13.6 µM (inactive); with UACC-257, 13.7 µM (inactive); with MOLT-4 it was 3.78 µM (inactive). The GI50 with SW-620 was 13.2 µM (inactive).

In the case of `OCC1C(O)C(O)[C@@H]2SCCN12` (stereo not given in full), the GI50 in the test with MDA-MB-231, in the test with OVCAR-8, with NCI-H23, in the test with A498, with UACC-62 and in the test on SK-MEL-28 was > 100 µM (inactive) throughout. The GI50 with NCI-H460, with Malme-3M, in the test on SNB-19, in the test on COLO 205, with HCC 2998 and in the test with NCI/ADR-RES was > 100 µM (inactive) in each case. The GI50 in the test with SNB-75, in the test with MDA-MB-435, in the test with HOP-92, in the test with UACC-257, in the test on RXF 393 and with MOLT-4 was > 100 µM (inactive) in each case. For the same compound, the GI50 in the test with SW-620 is > 100 µM (inactive).

`O=C1NC(O)CCN1C1CC(O)C(CO)O1` (stereo not given): the GI50 with MDA-MB-231, in the test on OVCAR-8, in the test with NCI-H23, in the test on A498, in the test with UACC-62 and with SK-MEL-28 was > 100 µM (inactive) each time. Besides, the GI50 with NCI-H460, in the test with Malme-3M, in the test on SNB-19, with COLO 205, in the test on HCC 2998 and in the test on SF-539 was > 100 µM (inactive) each time. The GI50 in the test with NCI/ADR-RES, with MDA-MB-435, in the test with HOP-92, with UACC-257, with RXF 393 and in the test on MOLT-4 was > 100 µM (inactive) each time. The GI50 in the test with SW-620 is > 100 µM (inactive).

For the compound `O=[N+]([O-])c1ccc(-c2csc3nc(-c4ccccc4)nn23)cc1`, the GI50 is 44 µM (inactive) in the test on MDA-MB-231; 47.5 µM (inactive) in the test on OVCAR-8; > 100 µM (inactive) in the test with NCI-H23; > 100 µM (inactive) with A498; > 100 µM (inactive) with UACC-62; > 100 µM (inactive) with SK-MEL-28. The GI50 is > 100 µM (inactive) in the test on Malme-3M; > 100 µM (inactive) with SNB-19; > 100 µM (inactive) in the test on COLO 205; > 100 µM (inactive) with HCC 2998; > 100 µM (inactive) in the test with NCI/ADR-RES; 94.6 µM (inactive) in the test with SNB-75. The GI50 in the test with MDA-MB-435 was > 100 µM (inactive); in the test with HOP-92, 50.5 µM (inactive); with UACC-257, > 100 µM (inactive); with RXF 393, 40.8 µM (inactive); in the test with MOLT-4 it was > 100 µM (inactive); in the test on SW-620 it was > 100 µM (inactive).

`c1ccc(CCN2CCCCCC2)nc1`: the GI50 with MDA-MB-231, in the test on OVCAR-8, with NCI-H23, with A498, in the test on UACC-62 and in the test on SK-MEL-28 was > 100 µM (inactive) in each case. Further, the GI50 with NCI-H460, in the test with Malme-3M, in the test on SNB-19, in the test with COLO 205, with NCI/ADR-RES and in the test with MDA-MB-435 was > 100 µM (inactive) each time. Also, the GI50 in the test with HOP-92, in the test with RXF 393, in the test on MOLT-4 and in the test with SW-620 was > 100 µM (inactive) throughout.

For the compound `C[C@]12[C@@H]3CC[C@H]1[C@@H](OC(=O)Nc1cc([N+](=O)[O-])cc([N+](=O)[O-])c1)C(=O)N2CC3`, the GI50 in the test on MDA-MB-231, in the test with OVCAR-8, in the test on NCI-H23, in the test with A498, in the test with UACC-62 and in the test on SK-MEL-28 was > 100 µM (inactive) each time. The GI50 in the test with NCI-H460, in the test with Malme-3M, with SNB-19, in the test on COLO 205, in the test with HCC 2998 and in the test with NCI/ADR-RES was > 100 µM (inactive) in each case. For the same compound, the GI50 in the test on SNB-75 is 19.6 µM (inactive); in the test with MDA-MB-435, > 100 µM (inactive); in the test with HOP-92 it was > 100 µM (inactive); in the test on UACC-257 it was > 100 µM (inactive); in the test with RXF 393, > 100 µM (inactive); in the test with MOLT-4 it was > 100 µM (inactive). For the same compound, in the test on SW-620, the GI50 was > 100 µM (inactive).
